Tests used:
[1] = molecular target: T1, human Sigma-2 receptor (S2R) (Homo sapiens, UniProt Q5BJF2); assay: Radioligand competition binding at Sigma-2 receptor ([3H]-DTG, untransfected MCF-7); conditions: displacement of 2.5 nM [3H]DTG, untransfected MCF-7 cells; average of 2-3 experiments ± SEM; read-out: S2R affinity (Ki)
T1 construct: these cells express the endogenous S2R; endogenous in cells; host or cells: untransfected human MCF-7 cells
Description: Ki values were calculated from IC50 values using the Cheng-Prusoff equation.

neuronal MN9D cell line = assay: BDNF secretion via in situ ELISA; type: cell-based; conditions: 10 μM, 24 hrs, MN9D cells; normalized to maximal response of 10 μM 4-PPBP; mean ± SEM; asterisk = significantly different from 4-PPBP
Excerpt: Measuring BDNF secretion via in situ ELISA. […] The in situ ELISA improves on traditional ELISA by seeding BDNF-secreting cells directly into the wells pre-coated with an anti-BDNF primary antibody. BDNF secreted by these cells is immediately captured by the primary antibody, drastically increasing the sensitivity and reproducibility of the ELISA assay. Intact cells are removed […] the addition of the secondary and tertiary antibodies. The amount of BDNF secreted from the neuronal MN9D cells was quantified using an in situ ELISA assay developed using the BDNF EMAX® ImmunoAssay kit (Cat. No. G7611, Promega, Madison, WI). Briefly, a NUNC™ MAXISORP™ flat-bottom, polystyrene, 96-well immunoplate was coated for 48 hrs at 4° C. with an anti-BDNF monoclonal antibody diluted 1:1000 v/v in carbonate buffer containing 25 mM sodium bicarbonate and 25 mM sodium carbonate, pH 9.7. Unbound antibody was removed by washing 5 times with 150 μL of TBST buffer (20 mM Tris-HCl, pH7.6, 150 mM NaCl, and 0.05% (v/v) TWEEN® 20), before blocking non-specific sites first with blocking buffer for 1 hr and then with culture medium for 2 hrs. Cells were seeded at 35,000 cells per well and incubated overnight at 37° C. in a humidified CO2 incubator. The following day, the wells were replaced with fresh culture media containing either experimental compounds or vehicle controls, then incubated for an additional 24 hours. In addition, on the same plate, but in separate wells, BDNF standards were added ranging in concentration from 15.6-250 pg/mL. After 24 hrs incubation with experimental compounds, the media was aspirated and 100 μL of Dulbecco's phosphate saline (D-PBS without Ca^2+ and Mg^2+ supplemented with 5 mM EDTA) was added to each well and incubated for 15 min at 37° C. to promote cell lifting. Cells were then detached from the bottom of wells by triturating in the center and around the edges of the well. After removing all cell debris, the wells were rinsed five times with 150 μL of TBST. The plate was then incubated with 1:500 v/v diluted polyclonal anti-human BDNF antibody for 2 hrs at room temperature. This antibody was removed, and wells were washed five times with 150 μL of TBST, before incubating with 1:200 v/v diluted polyclonal Anti-IgY HRP conjugate for 2 hrs at room temperature. Wells were then washed five times with 150 μL of TBST and the remaining specifically bound polyclonal antibody was detected with the 50 μL colorimetric HRP substrate 3,3′,5,5′-Tetramethylbenzidine (TMB). The reaction was terminated with 50 μL of 1 M HCl and the color intensity was quantified by measuring the absorbance at 450 nm using a FLEXSTATION® 3 plate reader (Molecular Devices, Sunnyvale, CA). […] A one-way ANOVA with a Bonferroni multiple comparisons post-hoc analysis (P<0.05) was applied to determine significant differences between groups.
Further, BDNF secreted from MN9D cells can be detected 24 hours after treatment with S1R ligand, whereas BDNF secreted from the B104 cell line takes 7 days to be detected (Fujimoto, et al., 2012).
An in situ ELISA approach was utilized because of its improved sensitivity related to its rapid capture of secreted BDNF (Balkowiec & Katz, 2000; Dalwadi, et al., 2017). […] Values are averages of 2-10 experiments±SEM, and each experiment was performed in triplicate. Statistical significance at P<0.05 was determined by ANOVA followed by a Bonferroni's post-hoc test and are marked with an asterisk.

[2] = Pharmacokinetics of per oral oxeladin in plasma and brain; type: in vivo, rat; conditions: for time after dosing at which detected in brain / time after dosing at which detected in plasma: rat, 135 mg/kg
Description: Evaluating the pharmacokinetics of Sigma receptor agonists. […] Whole blood was harvested into EDTA coated tubes at 30, 60, 120, 240, 720, and 1440 minutes from rats following euthanasia by CO2 inhalation. Plasma was processed from whole blood by centrifugation for 10 min at 10,000 rpm and frozen at −80° C. until assayed. The brains were collected, weighed, snap frozen in liquid nitrogen, and stored at −80° C. until processed.
For standards, 98 μl blank plasma was added to an Eppendorf tube spiked with 2 μl of […] (IS). For QCs, add 98.8 μl blank plasma was added to an Eppendorf tube spiked with 1.2 μl of IS. 100 μl plasma was mixed with 200 μl of acetonitrile containing 0.15% formic acid and 37.5 ng/ml IS (IS final conc.=25 ng/ml), and 100 microliters brain homogenized solution was mixed with 200 microliters of acetonitrile containing 0.15% formic acid and 60 ng/ml IS (IS final conc.=40 ng/ml). The samples were vortexed 15 sec, incubated at room temp for 10 min and spun 2×13,200 rpm in a standard microcentrifuge. The supernatant was then analyzed by LC/MS/MS (QTRAP® 3200) according to the following parameters:
Ion Source/Gas Parameters: CUR=25, CAD=medium, IS=5000, TEM=700, GS1=70, GS2=70.
Buffer A: Water+0.1% formic acid; Buffer B: ACN+0.1% formic acid; flow rate 1.5 ml/min; column Agilent Eclipse XDB-C18 column, 5 micron packing 50×4.6 mm size; 0-1.5 min 3% B, 1.5-2.0 min gradient to 100% B, 2.0-3.5 min 100% B, 3.5-3.6 min gradient to 3% B, 3.6-4.5 3% B. IS: n-benzylbenzamide (Sigma-Aldrich, lot #02914LH, in ACN, transition 212.1 to 91.1); Compound transition 336.127/100.1.

[3] = source not stated; cited from earlier work
[4] = 135 mg/kg p.o., listed as oxeladin

T1 sequence (Q5BJF2 whole entry): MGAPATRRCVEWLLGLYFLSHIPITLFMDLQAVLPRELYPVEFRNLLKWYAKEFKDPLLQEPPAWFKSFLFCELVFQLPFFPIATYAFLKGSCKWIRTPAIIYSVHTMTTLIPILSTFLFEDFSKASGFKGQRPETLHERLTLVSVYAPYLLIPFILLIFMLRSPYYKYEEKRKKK

CCN(CC)CCOCCOC(=O)C(CC)(CC)c1ccccc1 [Oxeladin]
Ki [1]: 0.148 ± 0.064 µM
Efficacy of BDNF secretion (neuronal MN9D cell line): 0.55 ± 0.04
half-life, brain ([2]; rat brain, 135 mg/kg oral gavage (figure legend)): greater than 4 hours
AUClast, brain ([2]; rat brain, 135 mg/kg p.o.): 423726 ng·min/g
Terminal T1/2 (terminal elimination half-life), brain ([2]; rat brain, 135 mg/kg p.o.): 5.32 h
Tmax (time to obtain maximum concentration), brain ([2]; rat brain, 135 mg/kg p.o.): 0.5 h
half-life, plasma ([2]; rat plasma, 135 mg/kg oral gavage (figure legend)): greater than 4 hours
AUClast, plasma ([2]; rat plasma, 135 mg/kg p.o.): 122293 ng·min/mL
Terminal T1/2 (terminal elimination half-life), plasma ([2]; rat plasma, 135 mg/kg p.o.): 4.15 h
Tmax (time to obtain maximum concentration), plasma ([2]; rat plasma, 135 mg/kg p.o.): 0.5 h
time after dosing at which detected in brain ([2]; 135 mg/kg p.o.): ≤ 30 min
time after dosing at which detected in plasma ([2]; 135 mg/kg p.o.): ≤ 30 min
time after dosing at which detected in brain [2, 4]: 30 min
time after dosing at which detected in plasma [2, 4]: 30 min
LogP [3]: 4.43

From patent publication US20250134902A1, “DRUG REPURPOSING FOR DELAYED TREATMENT OF ISCHEMIC STROKE” (UNIVESRITY OF NORTH TEXAS HEALTH SCIENCE CENTER, priority 2022, published 2025)
